According to patent US20250188093A1, “TYK2 INHIBITORS AND USES THEREOF” (Alumis Inc., priority 2022, published 2025):
pIC50, pKd: −log10 of the molar value.

Tests used:
JAK2 JH1 = biological target: T1, JAK2 JH1 (Homo sapiens, UniProt O60674); test: KINOMEscan binding, JAK2 JH1
T1 construct: JAK2 JH1

JAK1 JH1 = biological target: T2, JAK1 JH1 (Homo sapiens, UniProt P23458); test: KINOMEscan binding, JAK1 JH1
T2 construct: JAK1 JH1

[1] = biological target: T3, human TYK2 (JH2domain-pseudokinase) (Homo sapiens, UniProt P29597); test: TYK2 JH2 domain binding assay (KINOMEscan)
T3 construct: host or cells: transiently transfected HEK293 cells; unpurified extract
Procedure: Binding constants for the compounds described herein against the JH2 domain were determined by the following protocol for a KINOMEscan® assay (DiscoveRx). A fusion protein of a partial length construct of human TYK2 (JH2domain-pseudokinase) (amino acids G556 to D888 based on reference sequence NP_003322.3) and the DNA binding domain of NFkB was expressed in transiently transfected HEK293 cells. From these HEK 293 cells, extracts were prepared in M-PER extraction buffer (Pierce) in the presence of Protease Inhibitor Cocktail Complete (Roche) and Phosphatase Inhibitor Cocktail Set II (Merck) per manufacturers' instructions. The TYK2 (JH2domain-pseudokinase) fusion protein was labeled with a chimeric double-stranded DNA tag containing the NFkB binding site fused to an amplicon for qPCR readout, which was added directly to the expression extract (the final concentration of DNA-tag in the binding reaction is 0.1 nM).
Streptavidin-coated magnetic beads (Dynal M280) were treated with a biotinylated small molecule ligand for 30 minutes at room temperature to generate affinity resins the binding assays. The liganded beads were blocked with excess biotin and washed with blocking buffer (SeaBlock (Pierce), 1% BSA, 0.05% Tween 20, 1 mM DTT) to remove unbound ligand and to reduce nonspecific binding.
The binding reaction was assembled by combining 16 μl of DNA-tagged kinase extract, 3.8 μl liganded affinity beads, and 0.18 μl test compound (PBS/0.05% Tween 20/10 mM DTT/0.1% BSA/2 μg/ml sonicated salmon sperm DNA)]. Extracts were used directly in binding assays without any enzyme purification steps at a ≥10,000-fold overall stock dilution (final DNA-tagged enzyme concentration <0.1 nM). Extracts were loaded with DNA-tag and diluted into the binding reaction in a two-step process. First extracts were diluted 1:100 in 1× binding buffer (PBS/0.05% Tween 20/10 mM DTT/0.1% BSA/2 μg/ml sonicated salmon sperm DNA) containing 10 nM DNA-tag. This dilution was allowed to equilibrate at room temperature for 15 minutes and then subsequently diluted 1:100 in 1× binding buffer. Test compounds were prepared as 111× stocks in 100% DMSO. Kds were determined using an 11-point 3-fold compound dilution series with three DMSO control points. All compounds for Kd measurements were distributed by acoustic transfer (non-contact dispensing) in 100% DMSO. The compounds were then diluted directly into the assays such that the final concentration of DMSO was 0.9%. All reactions were performed in polypropylene 384-well plates. Each was a final volume of 0.02 mL. Assays were incubated with shaking for 1 hour at room temperature. Then the beads were pelleted and washed with wash buffer (1×PBS, 0.05% Tween 20) to remove displaced kinase and test compound. The washed based were re-suspended in elution buffer (1×PBS, 0.05% Tween 20, 0.5 μM non-biotinylated affinity ligand) and incubated at room temperature with shaking for 30 minutes. The kinase concentration in the eluates was measured by qPCR. qPCR reactions were assembled by adding 2.5 μL of kinase eluate to 7.5 μL of qPCR master mix containing 0.15 μM amplicon primers and 0.15 μM amplicon probe. The qPCR protocol consisted of a 10 minute hot start at 95° C., followed by 35 cycles of 95° C. for 15 seconds, 60° C. for 1 minute.
Test compounds were prepared as 111× stocks in 100% DMSO. Kds were determined using an 11-point 3-fold compound dilution series with three DMSO control points. All compounds for Kd measurements were distributed by acoustic transfer (non-contact dispensing) in 100% DMSO. The compounds were then diluted directly into the assays such that the final concentration of DMSO was 0.9%. The Kds were determined using a compound top concentration of 30,000 nM. Kd measurements were performed in duplicate.
Binding constants (Kds) were calculated with a standard dose-response curve using the Hill equation: […]
The Hill Slope was set to −1. […]

JAK1 JH2 = biological target: T4, JAK1 JH2 (Homo sapiens, UniProt P23458); test: KINOMEscan binding, JAK1 JH2
T4 construct: JAK1 JH2

JAK3 JH1 = biological target: T5, JAK3 JH1 (Homo sapiens, UniProt P52333); test: KINOMEscan binding, JAK3 JH1
T5 construct: JAK3 JH1

TYK2 JH1 = biological target: T6, TYK2 JH1 (Homo sapiens, UniProt P29597); test: KINOMEscan binding, TYK2 JH1
T6 construct: TYK2 JH1
T6 sequence (P29597 897-1176 limits assumed): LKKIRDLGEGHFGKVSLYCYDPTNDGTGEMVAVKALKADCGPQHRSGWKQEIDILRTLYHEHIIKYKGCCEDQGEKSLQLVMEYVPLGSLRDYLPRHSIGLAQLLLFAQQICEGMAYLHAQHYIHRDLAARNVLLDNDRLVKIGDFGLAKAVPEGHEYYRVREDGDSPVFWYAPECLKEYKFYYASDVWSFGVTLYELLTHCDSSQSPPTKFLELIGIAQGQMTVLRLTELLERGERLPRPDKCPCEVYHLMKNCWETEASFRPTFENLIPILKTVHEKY

JAK2 JH2 = biological target: T7, JAK2 JH2 (Homo sapiens, UniProt O60674); test: KINOMEscan binding, JAK2 JH2
T7 construct: JAK2 JH2

IFNa, PBMCs, p-STAT3 = test: IFNa induced p-STAT3 in PBMCs; assay type: cell-based; details: PBMC; human PBMCs, IFNa stimulation
IFNa, PBMCs, p-STAT5 = test: INFα induced pSTAT5 in human PBMC; assay type: cell-based; details: 0.25 h, IFNa 5000 units/ml, 15 minutes
Procedure: Fresh Human PBMCs were resuspended in RPMI 1640 medium with 10% FBS. Cells were seeded in a round bottom 96-well plate at the concentration of 200,000 cells/well. A 10-point dilution series of test compound (top dose 10 uM, 1:5 dilution) was added to the well using the liquid dispenser (Tecan D300e) and incubated for 1 hour at 37 C. Then human INFα recombinant protein (R&D Systems) was added to the well at the final concentration of 5000 units/ml and incubated for 15 minutes at 37 C. Cell lysates were prepared and analyzed by Phospho STAT5 (Tyr693) Kit (Meso Scale Discovery) following manufacturer's protocol.
For calculation of the inhibition rate, the relative pSTAT5 signal of each well=pSTAT5 signal of each well−the average pSTAT5 signal of baseline.
The inhibition %=(the average pSTAT5 signal of INFα treatment wells−the relative of pSTAT5 signal in each compound containing well)/the average pSTAT5 signal of INFα treatment wells*100%
The curve was plotted as the inhibition % (y-axis) vs. compounds concentration (x-axis) and is fitted with log (inhibitor) vs. normalized response—Variable slope by GraphPad Prism7.0.

T3 sequence (P29597 556-888): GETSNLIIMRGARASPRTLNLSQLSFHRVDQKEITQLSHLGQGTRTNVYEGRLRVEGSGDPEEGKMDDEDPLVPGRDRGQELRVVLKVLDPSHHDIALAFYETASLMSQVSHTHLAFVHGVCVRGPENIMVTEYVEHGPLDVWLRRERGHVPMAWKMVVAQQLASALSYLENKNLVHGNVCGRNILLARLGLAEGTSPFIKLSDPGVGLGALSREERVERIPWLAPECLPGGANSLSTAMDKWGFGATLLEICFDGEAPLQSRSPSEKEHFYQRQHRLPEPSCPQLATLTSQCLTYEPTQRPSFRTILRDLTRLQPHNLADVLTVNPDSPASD
T2 sequence (P23458 875-1153 limits assumed): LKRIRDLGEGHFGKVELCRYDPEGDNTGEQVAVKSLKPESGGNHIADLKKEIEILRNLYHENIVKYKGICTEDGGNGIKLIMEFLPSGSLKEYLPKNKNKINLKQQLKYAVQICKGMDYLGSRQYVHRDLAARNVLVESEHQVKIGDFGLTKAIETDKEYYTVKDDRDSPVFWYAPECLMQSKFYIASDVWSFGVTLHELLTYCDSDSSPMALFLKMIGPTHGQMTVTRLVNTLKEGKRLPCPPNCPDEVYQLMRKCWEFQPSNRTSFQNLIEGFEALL
T5 sequence (P52333 822-1111 limits assumed): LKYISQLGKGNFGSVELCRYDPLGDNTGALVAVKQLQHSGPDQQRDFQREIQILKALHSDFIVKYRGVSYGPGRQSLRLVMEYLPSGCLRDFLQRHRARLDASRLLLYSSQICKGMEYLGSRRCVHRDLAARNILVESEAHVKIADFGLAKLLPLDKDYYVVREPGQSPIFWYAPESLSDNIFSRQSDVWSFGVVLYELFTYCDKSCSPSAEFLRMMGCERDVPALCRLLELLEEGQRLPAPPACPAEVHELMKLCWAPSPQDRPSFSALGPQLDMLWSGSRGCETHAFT
T7 sequence (O60674 545-809 limits assumed): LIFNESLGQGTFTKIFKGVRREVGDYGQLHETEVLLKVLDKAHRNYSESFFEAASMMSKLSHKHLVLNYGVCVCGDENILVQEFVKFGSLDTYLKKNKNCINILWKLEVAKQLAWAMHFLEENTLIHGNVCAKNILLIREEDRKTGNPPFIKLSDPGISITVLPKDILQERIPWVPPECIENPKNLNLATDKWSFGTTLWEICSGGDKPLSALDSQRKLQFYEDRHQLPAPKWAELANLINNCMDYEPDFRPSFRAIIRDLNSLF
T4 sequence (P23458 583-855 limits assumed): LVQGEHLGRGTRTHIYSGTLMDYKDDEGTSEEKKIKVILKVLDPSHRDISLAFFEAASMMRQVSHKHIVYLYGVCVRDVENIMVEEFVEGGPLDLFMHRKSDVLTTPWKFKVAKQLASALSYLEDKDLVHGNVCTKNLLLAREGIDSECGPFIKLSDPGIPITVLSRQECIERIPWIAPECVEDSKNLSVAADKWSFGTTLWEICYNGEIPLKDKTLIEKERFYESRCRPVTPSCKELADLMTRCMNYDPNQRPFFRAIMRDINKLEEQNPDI
T1 sequence (O60674 849-1124 limits assumed): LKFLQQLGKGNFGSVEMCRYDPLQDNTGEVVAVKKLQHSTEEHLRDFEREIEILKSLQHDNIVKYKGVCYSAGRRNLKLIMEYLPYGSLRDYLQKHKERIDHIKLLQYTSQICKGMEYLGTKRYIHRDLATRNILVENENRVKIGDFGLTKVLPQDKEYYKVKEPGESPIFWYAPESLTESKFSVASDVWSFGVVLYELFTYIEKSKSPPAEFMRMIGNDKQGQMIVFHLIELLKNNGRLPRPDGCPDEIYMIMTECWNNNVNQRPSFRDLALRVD

Compound	pKd (JAK2 JH1)	pKd (JAK1 JH1)	pKd [1]	pKd (JAK1 JH2)	pKd (JAK3 JH1)	pKd (TYK2 JH1)	pKd (JAK2 JH2)	pIC50 (IFNa, PBMCs, p-STAT3)	pIC50 (IFNa, PBMCs, p-STAT5)
CNc1cc2nn3c(cnc13)C(=O)N[C@@H]1CCC[C@H]1OCc1cc(c3c(c1)nnn3C)N2 [Compound 3]	≤ 4.52	≤ 4.52	> 8.00	4.52 to 5.00	≤ 4.52	≤ 4.52	≤ 4.52	–	–
CNc1cc2nn3c(cnc13)C(=O)N[C@@H]1CCC[C@@H]1OCc1cc(c3c(c1)nnn3C)N2 [Compound 6, (6^1S,6^2R,E)-3^1-Methyl-1^8-(methylamino)-3^1H-5-oxa-2,7-diaza-1(6,3),3(7,5)-diimidazo[1,2-b]pyridazina-6(1,2)-cyclopentanacyclooctaphan-8-one]	≤ 4.52	≤ 4.52	> 8.00	6.00 to 8.00	≤ 4.52	≤ 4.52	5.00 to 6.00	–	–
CNc1cc2nn3c(cnc13)C(=O)N[C@@H]1CCC[C@H]1OCc1cc(c3nn(C)nc3c1)N2 [Compound 4, (1^5E,3^4E,6^1R,6^2R)-3^2-Methyl-1^8-(methylamino)-3^2H-5-oxa-2,7-diaza-1(6,3),3(4,6)-diimidazo[1,2-b]pyridazina-6(1,2)-cyclopentanacyclooctaphan-8-one]	5.00 to 6.00	≤ 4.52	> 8.00	6.00 to 8.00	4.52 to 5.00	4.52 to 5.00	5.00 to 6.00	> 7.00	> 7.00
CNc1cc2nc3c(cnn13)C(=O)N[C@@H]1CCC[C@H]1OCc1cc(c3nn(C)nc3c1)N2 [Compound 8]	–	–	> 8.00	6.00 to 8.00	–	4.52 to 5.00	–	–	–
CNc1cc2nn3c(cnc13)C(=O)N[C@@H]1CCC[C@@H]1OCc1cc(c3nn(C)nc3c1)N2 [Compound 7]	≤ 4.52	≤ 4.52	> 8.00	6.00 to 8.00	≤ 4.52	≤ 4.52	4.52 to 5.00	–	–
(1^3E,1^4E,6^1R,6^2R)-3^1-Methyl-1^7-(methylamino)-3^1H-5-oxa-2,7-diaza-1(5,3),3(4,6)-dipyrazolo[1,5-a]pyrimidina-6(1,2)-cyclopentanacyclooctaphan-8-one [Compound 2]	–	–	> 8.00	5.00 to 6.00	–	≤ 4.52	–	–	–
CNc1cc2nc3c(cnn13)C(=O)N1CC[C@H](C1)OCc1cc(c3nnn(C)c3c1)N2 [Compound 44]	–	–	> 8.00	5.00 to 6.00	–	≤ 4.52	–	–	–
CNc1cc2nc3c(cnn13)C(=O)N1CC[C@@H](C1)OCc1cc(c3nnn(C)c3c1)N2 [Compound 45]	–	–	> 8.00	5.00 to 6.00	–	≤ 4.52	–	–	–
CNc1cc2nn3c(cnc13)C(=O)N[C@@H]1CCC[C@H]1OCc1cc(c3nnn(C)c3c1)N2 [Compound 49]	–	–	> 8.00	5.00 to 6.00	–	≤ 4.52	–	–	–
[2H]C1([2H])O[C@H]2CCC[C@H]2NC(=O)c2cnc3c(NC)cc(nn23)Nc2cc1cc1c2nnn1C [Compound 51]	≤ 4.52	≤ 4.52	> 8.00	6.00 to 8.00	4.52 to 5.00	≤ 4.52	5.00 to 6.00	–	–
[2H]C1([2H])O[C@@H]2CCC[C@H]2NC(=O)c2cnc3c(NC)cc(nn23)Nc2cc1cc1c2nnn1C [Compound 50]	4.52 to 5.00	≤ 4.52	> 8.00	5.00 to 6.00	5.00 to 6.00	≤ 4.52	5.00 to 6.00	–	–
CNc1cc2nn3c(cnc13)Nc1cc(cc3c1ncn3C)COC1CCCC1NC2=O (stereo not shown) [Compound 12, (6^1R,6^2R,E)-3^1-Methyl-1^8-(methylamino)-3^1H-5-oxa-2,7-diaza-1(6,3)-imidazo[1,2-b]pyridazina-3(4,6)-benzo[d]imidazola-6(1,2)-cyclopentanacyclooctaphan-8-one]	–	–	> 8.00	4.52 to 5.00	–	≤ 4.52	–	–	–
(1^3E,1^4E,6^1S,6^2R)-3^1-Methyl-1^7-(methylamino)-3^1H-5-oxa-2,7-diaza-1(5,3),3(4,6)-dipyrazolo[1,5-a]pyrimidina-6(1,2)-cyclopentanacyclooctaphan-8-one [Compound 11]	–	–	> 8.00	6.00 to 8.00	–	≤ 4.52	–	–	–
CNc1cc2nn3c(cnc13)C(=O)N[C@@H]1CCC[C@@H]1OCc1cc(c3nnn(C)c3c1)N2 [Compound 5]	≤ 4.52	≤ 4.52	> 8.00	6.00 to 8.00	≤ 4.52	≤ 4.52	5.00 to 6.00	–	–
(1^3E,1^4E,3^4E,6^1R,6^2R)-3^2-Methyl-1^7-(methylamino)-3^2H-5-oxa-2,7-diaza-1(5,3),3(4,6)-dipyrazolo[1,5-a]pyrimidina-6(1,2)-cyclopentanacyclooctaphan-8-one [Compound 10]	–	–	> 8.00	5.00 to 6.00	–	≤ 4.52	–	–	–
CNc1cc2nc3c(cnn13)C(=O)N[C@@H]1CCC[C@@H]1OCc1cc(c3nnn(C)c3c1)N2 [Compound 9]	–	–	> 8.00	6.00 to 8.00	–	≤ 4.52	–	–	–
CNc1cc2nn3c(cnc13)C(=O)N[C@@H]1CCC[C@H]1OCc1cc(c3nnn(C)c3c1)N2 [Compound 1]	≤ 4.52	≤ 4.52	> 8.00	–	4.52 to 5.00	–	5.00 to 6.00	> 7.00	> 7.00
